Measured values taken from ChEMBL document CHEMBL1201862, “PubChem BioAssay data set” (2004).
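The compound was tested at five concentrations on cells cultured in 96-well plates, with a 48-hour exposure period. Here, GI50 denotes the concentration required for 50% inhibition of growth.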 Active and inactive are the calls of the source. Rule as the data show it: active = GI50 up to about 1.1 µM and inactive = higher.

Columns and labels:
Assay in all cases: DTP human tumour cell line panel, 48 h
M19-MEL = test system: M19-MEL
DLD-1 = test system: DLD-1
XF498 = test system: XF498
LXFL 529 = test system: LXFL 529
SNB-78 = test system: SNB-78
DMS-114 = test system: DMS-114
RXF 631 = test system: RXF 631
HOP-18 = test system: HOP-18
DMS-273 = test system: DMS-273

Structure (SMILES)	GI50 (M19-MEL)	GI50 (DLD-1)	GI50 (XF498)	GI50 (LXFL 529)	GI50 (SNB-78)	GI50 (DMS-114)	GI50 (RXF 631)	GI50 (HOP-18)	GI50 (DMS-273)
CSC(=S)N/N=C/c1nccc2ccccc12	2.29 µM (inactive)	0.537 µM (active)	0.809 µM (active)	0.488 µM (active)	3.18 µM (inactive)	0.627 µM (active)	4.69 µM (inactive)	1.82 µM (inactive)	1.85 µM (inactive)
CC(=O)O[C@]1(C)OC(=O)[C@@H](CC(C)C)N1[N+](=O)[O-]	> 100 µM (inactive)	> 100 µM (inactive)	< 0.01 µM (active)	> 100 µM (inactive)	> 100 µM (inactive)	> 100 µM (inactive)	–	> 100 µM (inactive)	> 100 µM (inactive)
CC1(C)OC(=O)C(=C2CC(c3ccccc3)c3ccccc32)C(=O)O1 (stereo not drawn)	> 100 µM (inactive)	> 100 µM (inactive)	–	> 100 µM (inactive)	> 100 µM (inactive)	> 100 µM (inactive)	> 100 µM (inactive)	> 100 µM (inactive)	–
CCOC(=O)N[C@H]1CCc2cc(OC)c(OC)c(OC)c2-c2ccc(SC)c(=O)cc21	–	< 0.01 µM (active)	< 0.01 µM (active)	–	< 0.01 µM (active)	–	–	–	< 0.01 µM (active)
CCOc1ccc(/N=C\c2cc(OC)c(OC)c(OC)c2)cc1	> 100 µM (inactive)	> 100 µM (inactive)	> 100 µM (inactive)	> 100 µM (inactive)	> 100 µM (inactive)	> 100 µM (inactive)	–	> 100 µM (inactive)	> 100 µM (inactive)
C[C@]12CCC3[C@@H](CC[C@@H]4c5nonc5CC[C@]34C)C1CCC(=O)N2 (stereo partly drawn)	> 100 µM (inactive)	–	> 100 µM (inactive)	> 100 µM (inactive)	> 100 µM (inactive)	–	> 100 µM (inactive)	> 100 µM (inactive)	> 100 µM (inactive)
[O-][S+]1Nc2cccc(C(F)(F)F)c2S1 (stereo not drawn)	66.1 µM (inactive)	34.4 µM (inactive)	21.1 µM (inactive)	26.5 µM (inactive)	31.2 µM (inactive)	20.1 µM (inactive)	–	72.4 µM (inactive)	25.1 µM (inactive)
O=c1nc2sc3ccc4ccccc4c3n2nc1-c1ccccc1	78.3 µM (inactive)	35.6 µM (inactive)	29.6 µM (inactive)	44.7 µM (inactive)	35.8 µM (inactive)	> 100 µM (inactive)	36.6 µM (inactive)	30.5 µM (inactive)	39.2 µM (inactive)
CC(C)N1CC2CC(CN(C(=O)c3ccccc3)C2)C1.[O-][Cl+3]([O-])([O-])O	> 100 µM (inactive)	–	> 100 µM (inactive)	> 100 µM (inactive)	–	> 100 µM (inactive)	> 100 µM (inactive)	> 100 µM (inactive)	> 100 µM (inactive)
CCOC(=O)NC(=O)c1cn(CCN2CCN(C(=O)CCCCCCCCCCNc3ncnc4[nH]cnc34)CC2)c(=O)[nH]c1=O	> 100 µM (inactive)	> 100 µM (inactive)	–	39.8 µM (inactive)	32.4 µM (inactive)	–	–	> 100 µM (inactive)	> 100 µM (inactive)
COc1cc(/C=C/C(=O)c2sc(Nc3ccccc3)nc2C)ccc1O	> 100 µM (inactive)	37.5 µM (inactive)	–	–	> 100 µM (inactive)	44.6 µM (inactive)	–	> 100 µM (inactive)	> 100 µM (inactive)
O=C(N/C(=C\c1ccc(F)cc1)c1nc2ccccc2[nH]1)c1ccccc1	> 100 µM (inactive)	> 100 µM (inactive)	> 100 µM (inactive)	> 100 µM (inactive)	> 100 µM (inactive)	> 100 µM (inactive)	> 100 µM (inactive)	> 100 µM (inactive)	–
COc1ccc(C2S/C(=C\c3cccc([N+](=O)[O-])c3)C(=O)N2NC(=O)Cc2ccccc2)cc1 (stereo not drawn)	> 100 µM (inactive)	> 100 µM (inactive)	–	> 100 µM (inactive)	–	> 100 µM (inactive)	–	> 100 µM (inactive)	> 100 µM (inactive)
COc1ccc(C(=O)C(C(=O)C(=O)Nc2nccs2)c2ccc(OC)cc2)cc1 (stereo not drawn)	–	> 100 µM (inactive)	> 100 µM (inactive)	> 100 µM (inactive)	> 100 µM (inactive)	> 100 µM (inactive)	–	> 100 µM (inactive)	> 100 µM (inactive)
CC1=C(C(=O)Nc2cc(F)c(F)cc2F)C(c2ccc3c(c2)OCO3)C(C(=O)Nc2cc(F)c(F)cc2F)=C(C)N1	20.7 µM (inactive)	18.9 µM (inactive)	6.34 µM (inactive)	23.2 µM (inactive)	17.2 µM (inactive)	17.7 µM (inactive)	–	–	–
C[C@@H]1CC(=O)C2CCCC1C2=O (stereo partly drawn)	> 100 µM (inactive)	> 100 µM (inactive)	–	> 100 µM (inactive)	> 100 µM (inactive)	> 100 µM (inactive)	> 100 µM (inactive)	> 100 µM (inactive)	> 100 µM (inactive)
O=C(CCC(=O)Nc1cccc(C(F)(F)F)c1)CC(=O)c1ccc2ccccc2c1	> 100 µM (inactive)	> 100 µM (inactive)	> 100 µM (inactive)	> 100 µM (inactive)	> 100 µM (inactive)	> 100 µM (inactive)	> 100 µM (inactive)	> 100 µM (inactive)	> 100 µM (inactive)
COc1cc2cc(OC)c3cc4c(cc3c2c(OC)c1OC)OCO4	20.8 µM (inactive)	18.1 µM (inactive)	–	31.3 µM (inactive)	50.2 µM (inactive)	35.7 µM (inactive)	32.5 µM (inactive)	67.6 µM (inactive)	15.1 µM (inactive)
COc1cc(C(=O)C/C(CCC(=O)Nc2ccccc2[N+](=O)[O-])=N\NC(N)=O)ccc1O	> 100 µM (inactive)	–	6.49 µM (inactive)	–	> 100 µM (inactive)	> 100 µM (inactive)	> 100 µM (inactive)	89.1 µM (inactive)	> 100 µM (inactive)
NC(CS)C(=O)NCCNc1ccc(NCCNC(=O)C(N)CS)c2c1C(=O)c1c(O)ccc(O)c1C2=O (stereo not drawn)	0.0318 µM (active)	0.121 µM (active)	0.0138 µM (active)	0.106 µM (active)	0.214 µM (active)	0.00143 µM (active)	–	0.439 µM (active)	0.00168 µM (active)
O=C(/C=C/c1ccc(Br)cc1)c1ccc(NCc2nc3ccccc3[nH]2)cc1	6.56 µM (inactive)	4.83 µM (inactive)	5.89 µM (inactive)	4.24 µM (inactive)	2.98 µM (inactive)	2.99 µM (inactive)	–	> 46.2 µM (inactive)	5.7 µM (inactive)
O=C(CCc1ccccc1)NS(=O)(=O)c1ccccc1	> 100 µM (inactive)	> 100 µM (inactive)	> 100 µM (inactive)	> 100 µM (inactive)	–	> 100 µM (inactive)	> 100 µM (inactive)	> 100 µM (inactive)	–
C1CCOC2(CCC3(CC2)OCCCCO3)OC1	> 100 µM (inactive)	> 100 µM (inactive)	–	> 100 µM (inactive)	> 100 µM (inactive)	> 100 µM (inactive)	–	> 100 µM (inactive)	> 100 µM (inactive)
CCCC(O)[C@@H](O)c1ccc2c(c1O)C(=O)c1c(OC)cccc1C2=O (stereo partly drawn)	24.2 µM (inactive)	36.9 µM (inactive)	20.2 µM (inactive)	–	36.6 µM (inactive)	26.2 µM (inactive)	28.2 µM (inactive)	50.8 µM (inactive)	35.5 µM (inactive)
C[N+](C)(C)CC1CCC(C[N+](C)(C)C)C1=O (stereo not drawn)	1.94 µM (inactive)	2.2 µM (inactive)	2.03 µM (inactive)	0.555 µM (active)	2.4 µM (inactive)	2.34 µM (inactive)	5.47 µM (inactive)	0.794 µM (active)	2.16 µM (inactive)
Cn1c2ccccc2c2[nH]cc3nc4ccccc4c-3c21	19.7 µM (inactive)	> 100 µM (inactive)	17.4 µM (inactive)	25.2 µM (inactive)	24.5 µM (inactive)	22.9 µM (inactive)	29.5 µM (inactive)	–	16.2 µM (inactive)
COc1ccc(C2Cc3cc(OC)c(OC)c(OC)c3C2)cc1 (stereo not drawn)	41.9 µM (inactive)	44.7 µM (inactive)	11.3 µM (inactive)	–	72.6 µM (inactive)	27.8 µM (inactive)	–	72.3 µM (inactive)	36.8 µM (inactive)
O=P1(NCCCl)OCCCN1CCCl (stereo not drawn) [IFOSFAMIDE]	395 µM (inactive)	380 µM (inactive)	381 µM (inactive)	498 µM (inactive)	384 µM (inactive)	399 µM (inactive)	–	104 µM (inactive)	364 µM (inactive)
